Assay results published in patent US11007206B2, “Cyclic boronic acid ester derivatives and therapeutic uses thereof” (Melinta Subsidiary Corp., priority 2012, dated 2021).

Test system: carbapenem-resistant, KPC-producing K. pneumoniae
Experiment: Mouse model of thigh infection, Biapenem +/- Compound I (Example 6)
Assay type: in vivo
Conditions: IP 50 mpk Biapenem +/- 50 mpk Compound I every two hours for 24 hours
Method: Example 6 provides the in vivo efficacy study of the carbapenem Biapenem in combination with Compound I in mouse models of pulmonary and thigh infection due to the carbapenem-resistant, KPC-producing K. pneumoniae.
Four K. pneumoniae strains with Biapenem MICs ranging between 0.25-64 mg/L were used. Neutropenic mice were infected with ˜10^5 CFU/lung or ˜10^6 CFU/thigh. Intraperitoneal treatments with 50 mpk Biapenem+/−50 mpk Compound I were initiated 2 hours post-infection as a single dose or continued every two hours for 24 hours. Mice were sacrificed on designated time points and colony counts in tissue determined.

**Q.** Which “Change in Log CFU/thigh ± SD @ 24 h” value (strain ATCC 43816, neutropenic mice) does the source give for `C[C@@H](O)[C@H]1C(=O)N2C(C(=O)[O-])=C(SC3Cn4cnc[n+]4C3)[C@H](C)[C@H]12` (stereo partly shown) [Biapenem] here?
**A.** −1.09 ± 0.30 Log CFU/thigh

**Q.** And the “Change in Log CFU/thigh ± SD @ 24 h” value (strain KP1004, neutropenic mice)?
**A.** +0.71 ± 0.10 Log CFU/thigh

**Q.** And the “Change in Log CFU/thigh ± SD @ 24 h” value (strain KP1061, neutropenic mice)?
**A.** +1.67 ± 0.09 Log CFU/thigh

**Q.** What about the “Change in Log CFU/thigh ± SD @ 24 h” value (strain KP1074, neutropenic mice) of the same compound?
**A.** +0.98 ± 0.46 Log CFU/thigh
